The numbers were not newly measured in patent US20020025310A1, “Compositions and methods for promoting healthy joints” (priority 2000, published 2002), which cites them from elsewhere.

One data set concerns the target PARS (Homo sapiens, UniProt P09874). The following applies: 100 mg/day supplementation, smokers with varying levels of cytogenic damage.
For data set [1] the following is noted: 800 mg orally, heavy aerobic exercise.
A further data set relates to isolated alveolar cells. Particulars: animal studies.
For data set [2], the system named is complex I, IV, and V in hepatic mitochondria. The following applies: senescent mice, compared to controls without NAC supplementation.
For data set [3] the following is noted: COPD patients, 600 mg per day oral, compared to patients without NAC.
The conditions of data set [4]: 200 to 400 mg/day.

Chain of PARS (P09874 whole entry): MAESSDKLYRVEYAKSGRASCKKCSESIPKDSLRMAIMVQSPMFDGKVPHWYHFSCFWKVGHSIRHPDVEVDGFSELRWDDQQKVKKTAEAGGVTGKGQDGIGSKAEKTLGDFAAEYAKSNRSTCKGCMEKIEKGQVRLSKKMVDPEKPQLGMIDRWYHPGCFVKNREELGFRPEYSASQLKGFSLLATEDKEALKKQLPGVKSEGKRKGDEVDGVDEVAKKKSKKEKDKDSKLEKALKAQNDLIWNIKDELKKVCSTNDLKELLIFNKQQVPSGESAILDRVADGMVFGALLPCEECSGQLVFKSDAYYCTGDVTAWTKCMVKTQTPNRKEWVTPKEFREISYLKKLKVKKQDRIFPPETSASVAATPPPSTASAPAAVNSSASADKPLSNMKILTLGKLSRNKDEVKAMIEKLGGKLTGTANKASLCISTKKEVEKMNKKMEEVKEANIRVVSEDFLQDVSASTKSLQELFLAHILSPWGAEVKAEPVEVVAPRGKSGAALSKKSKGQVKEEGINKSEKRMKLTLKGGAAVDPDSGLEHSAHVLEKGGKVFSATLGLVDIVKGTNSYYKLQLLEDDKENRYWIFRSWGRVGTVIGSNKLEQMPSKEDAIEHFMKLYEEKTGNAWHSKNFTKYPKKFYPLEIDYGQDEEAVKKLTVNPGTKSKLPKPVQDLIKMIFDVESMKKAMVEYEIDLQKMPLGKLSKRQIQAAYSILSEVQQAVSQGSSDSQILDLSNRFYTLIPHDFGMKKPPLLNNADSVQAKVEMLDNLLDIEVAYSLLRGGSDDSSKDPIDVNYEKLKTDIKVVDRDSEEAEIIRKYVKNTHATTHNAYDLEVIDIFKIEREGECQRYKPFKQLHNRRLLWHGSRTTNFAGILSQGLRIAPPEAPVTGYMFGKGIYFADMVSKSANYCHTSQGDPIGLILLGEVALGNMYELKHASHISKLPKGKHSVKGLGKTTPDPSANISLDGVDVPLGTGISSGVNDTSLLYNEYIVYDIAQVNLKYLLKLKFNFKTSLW

As for `O=C(O)c1cccnc1` [nicotinic acid], the PARS activity entry at PARS is on record as “did not result in a significant reduction”.

Consider `CC(=O)N[C@@H](CS)C(=O)O` [NAC, N-acetylcysteine], for which, in data set [1], the “exercise-associated damage in leukocyte DNA” value was “less exercise-associated damage in leukocyte DNA”, the glutathione-to-glutathione disulfide ratio result is recorded as “increased” and the “plasma lipid peroxide level” value is “lowered”. Also, the “intracellular ATP depletion after oxidant exposure” value with isolated alveolar cells is “helps protect”. Moreover, the “specific activities of complex I, IV, and V in hepatic mitochondria” value in data set [2] was “significantly higher”. Also, in data set [3], the bacterial-positive cultures result is listed as “fewer bacterial-positive cultures”, the clinical course result was “improved clinical course” and the use of bronchodilators result is given as “reduced use of bronchodilators”. Also, in data set [4], the “glutathione disulfide-to-reduced glutathione ratio” value is reported as “reduction” and the intercellular glutathione levels result is reported as “significant increase”. In addition, the “individuals reporting side effects” value (400 to 6400 mg/m^2/day in divided doses) is reported as 13 of 26. In addition, the significant side effects entry (400 to 6400 mg/m^2/day in divided doses, doubled each month) was “bad taste and GI disturbances”. In addition, the “dose exceeded before any difficulty was reported” value (individuals reporting side effects) is on record as over 800 mg/m^2.
